Assay results from patent publication US20070010402A1, “Novel herbicides, usage thereof, novel thienopyrimidine derivatives, intermediates of the same, and process for production thereof” (NIHON NOHYAKU CO., LTD.,, priority 2002, published 2007).

Key:
Assay type in all cases: in vivo
Echinochloa oryzicola = assay: Submerged foliar treatment test (Test Example 3); conditions: water depth 3 cm, cotyledon to 1-leaf stage, wettable powder, active ingredient 10 g/a, 28th day from the treatment
Procedure: (§1) The herbicidal effect was evaluated in terms of herbicidal rate obtained from the following equation: Herbicidal rate (%)=[1−(Weight of weeds above the ground in a treated plot)/(Weight of weeds above the ground in a non-treated plot)]×100
(§2) and was expressed by herbicidal index according to the following criteria.
(§3) Alluvial soil from a paddy field was put in a resin-made vat having an area of 200 cm^2. After fertilization, seeds of Echinochloa oryzicola, Rotala indica and Scirpus juncoides were cast on the soil and uniformly covered with the soil, and water was poured onto the soil to keep a water depth of 3 cm. Then, cultivation was continued in a greenhouse, and when the weeds to be tested reached the cotyledon stage to 1-leaf stage, the wettable powder obtained in Formulation Example 1 was diluted with water and a predetermined amount thereof was added dropwise uniformly to the weeds by means of a pipette to give 10 g of the active ingredient per an are. Thereafter, cultivation was further continued in the greenhouse, and the herbicidal effect was examined on the 28th day from the treatment. The results obtained are shown in Table 9 (the compound numbers in Table 9 correspond to those in Tables 1 to 6).

Scirpus juncoides = assay: Submerged foliar treatment test (Test Example 3); conditions: water depth 3 cm, cotyledon to 1-leaf stage, wettable powder, active ingredient 10 g/a, 28th day from the treatment
Procedure: as §1, §2, §3

Rotala indica = assay: Submerged foliar treatment test (Test Example 3); conditions: water depth 3 cm, cotyledon to 1-leaf stage, wettable powder, active ingredient 10 g/a, 28th day from the treatment
Procedure: as §1, §2, §3

Echinochloa crus-galli = assay: Field foliar treatment test (Test Example 1); conditions: foliar spray at 1.0- to 2.0-leaf stage, wettable powder, active ingredient 10 g/a, 21st day from the treatment
Procedure: (§4) Alluvial soil from a field was put in a resin-made vat having an area of 200 cm^2. After fertilization, the seeds of Echinochloa crus-galli, Brassica juncea, and Ipomoea purpurea were cast on the soil and uniformly covered with the soil. Then, cultivation was continued in a greenhouse, and when the weeds to be tested reached the 1.0- to 2.0-leaf stage, the wettable powder obtained in Formulation Example 1 was diluted with water and a predetermined amount thereof was sprayed uniformly to the weeds by means of a small-sized power pressure spray to give 10 g of the active ingredient per an are. Thereafter, cultivation was further continued in the greenhouse, and the herbicidal effect was examined on the 21st day from the treatment. The results obtained are shown in Table 7 (the compound numbers in Table 7 correspond to those in Table 1 to 6). The herbicidal effect was evaluated in terms of herbicidal rate obtained from the following equation: Herbicidal rate (%)=[1−(Weight of weeds above the ground in a treated plot)/(Weight of weeds above the ground in a non-treated plot)]×100 and was expressed by herbicidal index according to the following criteria. [table]

Brassica juncea = assay: Field foliar treatment test (Test Example 1); conditions: foliar spray at 1.0- to 2.0-leaf stage, wettable powder, active ingredient 10 g/a, 21st day from the treatment
Procedure: as §4

Ipomoea purpurea = assay: Field foliar treatment test (Test Example 1); conditions: foliar spray at 1.0- to 2.0-leaf stage, wettable powder, active ingredient 10 g/a, 21st day from the treatment
Procedure: as §4

| SMILES | Herbicidal effect Echinochloa oryzicola (herbicidal index) (Echinochloa oryzicola) | Herbicidal effect Scirpus juncoides (herbicidal index) (Scirpus juncoides) | Herbicidal effect Rotala indica (herbicidal index) (Rotala indica) | Herbicidal effect Echinochloa crus-galli (herbicidal index) (Echinochloa crus-galli) | Herbicidal effect Brassica juncea (herbicidal index) (Brassica juncea) | Herbicidal effect Ipomoea purpurea (herbicidal index) (Ipomoea purpurea) |
| --- | --- | --- | --- | --- | --- | --- |
| CC(=O)OC1COCC1Oc1nc(-c2cccc(C(F)(F)F)c2)c2cc(C)sc2n1 (mixture of isomers) [6-188] | 5 (91 to 100) | 4 (71 to 90) | 5 (91 to 100) | – | – | – |
| Cc1cc2c(-c3cccc(OC(F)(F)F)c3)nc(Cl)nc2s1 [5-9] | 5 (91 to 100) | 4 (71 to 90) | 5 (91 to 100) | – | – | – |
| CCCOc1nc(-c2cccc(C(F)(F)F)c2)c2cc(CC)sc2n1 [6-8] | 5 (91 to 100) | 4 (71 to 90) | 4 (71 to 90) | – | – | – |
| CCOc1nc(-c2cccc(C(F)(F)F)c2)c2cc(C)sc2n1 [6-24] | 5 (91 to 100) | 4 (71 to 90) | 5 (91 to 100) | – | – | – |
| CCOc1nc(-c2cccc(OC(F)(F)F)c2)c2cc(C)sc2n1 [6-34] | 5 (91 to 100) | 5 (91 to 100) | 5 (91 to 100) | – | – | – |
| Cc1cc2c(-c3cccc(OC(F)F)c3)nc(OC(C)C)nc2s1 [6-41] | 5 (91 to 100) | 4 (71 to 90) | 5 (91 to 100) | – | – | – |
| CCCCCOc1nc(-c2ccccc2C)c2cc(C)sc2n1 [6-47] | 4 (71 to 90) | 1 (6 to 30) | 3 (51 to 70) | – | – | – |
| CCOc1nc(-c2sccc2C)c2cc(C)sc2n1 [6-50] | 3 (51 to 70) | 3 (51 to 70) | 4 (71 to 90) | – | – | – |
| CCCOc1nc(-c2cccc(Cl)c2)c2cc(C)sc2n1 [6-52] | 5 (91 to 100) | 3 (51 to 70) | 5 (91 to 100) | – | – | – |
| Cc1cc2c(-c3cccc(Cl)c3)nc(OC3CCCC3)nc2s1 [6-54] | 5 (91 to 100) | 4 (71 to 90) | 5 (91 to 100) | – | – | – |
| CCCOc1nc(-c2ccccc2Cl)c2cc(C)sc2n1 [6-56] | 5 (91 to 100) | 4 (71 to 90) | 5 (91 to 100) | – | – | – |
| Cc1cc2c(-c3cccc(Br)c3)nc(OCC(C)(C)C)nc2s1 [6-60] | 5 (91 to 100) | 5 (91 to 100) | 5 (91 to 100) | – | – | – |
| CCCOc1nc(-c2cccc(OC)c2)c2cc(C)sc2n1 [6-62] | 5 (91 to 100) | 5 (91 to 100) | 5 (91 to 100) | – | – | – |
| Cc1cc2c(-c3cccc(C(F)(F)F)c3)nc(OC(C)C(C)C)nc2s1 (stereo not drawn) [6-72] | 5 (91 to 100) | 3 (51 to 70) | 5 (91 to 100) | – | – | – |
| Cc1cc2c(-c3cccc(SC(F)(F)F)c3)nc(OC3CCCC3)nc2s1 [6-86] | 5 (91 to 100) | 4 (71 to 90) | 5 (91 to 100) | – | – | – |
| Cc1cc2c(-c3cccc(SC(F)(F)F)c3)nc(OCC(F)(F)F)nc2s1 [6-115] | – | – | – | 5 (91 to 100) | 5 (91 to 100) | 5 (91 to 100) |
| Cc1cc2c(-c3cccc(SC(F)(F)F)c3)nc(OCC(F)F)nc2s1 [6-116] | 5 (91 to 100) | 4 (71 to 90) | 5 (91 to 100) | – | – | – |

| SMILES | Herbicidal effect Echinochloa oryzicola (herbicidal index) (Echinochloa oryzicola) | Herbicidal effect Scirpus juncoides (herbicidal index) (Scirpus juncoides) | Herbicidal effect Rotala indica (herbicidal index) (Rotala indica) | Herbicidal effect Echinochloa crus-galli (herbicidal index) (Echinochloa crus-galli) | Herbicidal effect Brassica juncea (herbicidal index) (Brassica juncea) | Herbicidal effect Ipomoea purpurea (herbicidal index) (Ipomoea purpurea) |
| --- | --- | --- | --- | --- | --- | --- |
| Cc1cc2c(-c3cccc(OC(F)F)c3)nc(OCC(F)(F)C(F)F)nc2s1 [6-125] | – | – | – | 5 (91 to 100) | 5 (91 to 100) | 5 (91 to 100) |
| COCC(C)Oc1nc(-c2cccc(C(F)(F)F)c2)c2cc(C)sc2n1 (stereo not drawn) [6-142] | – | – | – | 5 (91 to 100) | 4 (71 to 90) | 5 (91 to 100) |
| Cc1cc2c(-c3cccc(C(F)(F)F)c3)nc(OC3CCOC3)nc2s1 (stereo not drawn) [6-184] | – | – | – | 5 (91 to 100) | 4 (71 to 90) | 5 (91 to 100) |
| Cc1cc2c(-c3cccc(C(F)(F)F)c3)nc(OCc3ccco3)nc2s1 [6-187] | – | – | – | 4 (71 to 90) | 5 (91 to 100) | 5 (91 to 100) |
| Cc1cc2c(-c3cccc(C(F)(F)F)c3)nc(-n3cccn3)nc2s1 [6-192] | – | – | – | 4 (71 to 90) | 4 (71 to 90) | 5 (91 to 100) |
| Cc1cc2c(-c3cccc(C(F)(F)F)c3)nc(-n3cncn3)nc2s1 [6-193] | – | – | – | 4 (71 to 90) | 4 (71 to 90) | 5 (91 to 100) |
| Cc1cc2c(-c3cccc(C(F)(F)F)c3)nc(-n3ccnc3C)nc2s1 [6-194] | – | – | – | 4 (71 to 90) | 5 (91 to 100) | 5 (91 to 100) |
| Cc1cc2c(Oc3cccc(OC(F)(F)F)c3)nc(-n3ccc(C(F)(F)F)n3)nc2s1 [6-202] | – | – | – | 4 (71 to 90) | 4 (71 to 90) | 5 (91 to 100) |
| Cc1cc2c(-c3ccc(F)c(C(F)(F)F)c3)nc(OCC(F)(F)F)nc2s1 [6-207] | – | – | – | 5 (91 to 100) | 5 (91 to 100) | 5 (91 to 100) |
| Cc1cccc(-c2nc(OC(C)C)nc3sc(C)cc23)c1 [6-215] | – | – | – | 5 (91 to 100) | 5 (91 to 100) | 5 (91 to 100) |
| Cc1cc2c(-c3ccccc3C)nc(OCC(F)(F)F)nc2s1 [6-217] | – | – | – | 4 (71 to 90) | 5 (91 to 100) | 5 (91 to 100) |
| Cc1cc2nc(OCC(F)(F)F)nc(-c3cccc(OC(F)(F)F)c3)c2s1 [6-235] | – | – | – | 5 (91 to 100) | 5 (91 to 100) | 5 (91 to 100) |
| C#CC(C)Oc1nc(-c2cccc(OC(F)(F)F)c2)c2sc(C)cc2n1 (stereo not drawn) [6-236] | – | – | – | 5 (91 to 100) | 5 (91 to 100) | 5 (91 to 100) |
| Cc1cc2c(-c3cccc(C)c3C)nc(OCC(F)(F)F)nc2s1 [6-245] | – | – | – | 4 (71 to 90) | 5 (91 to 100) | 5 (91 to 100) |
| Cc1cc2c(-c3ccccc3C(F)(F)F)nc(OCC(F)(F)C(F)F)nc2s1 [6-249] | – | – | – | 4 (71 to 90) | 5 (91 to 100) | 5 (91 to 100) |
| Cc1cc2c(-c3ccccc3OC(F)(F)F)nc(OCC(F)(F)F)nc2s1 [6-251] | – | – | – | 5 (91 to 100) | 5 (91 to 100) | 5 (91 to 100) |
| CCCOc1nc(-c2ccc(F)c(C(F)(F)F)c2)c2cc(C)sc2n1 [Compound No. 6-29, 4-[4-fluoro-3-(trifluoromethyl)phenyl]-6-methyl-2-propoxythieno[2,3-d]pyrimidine] | – | – | – | 4 (71 to 90) | 4 (71 to 90) | 5 (91 to 100) |
